Measurements as given in the NIST ThermoML archive (doi:10.1016/j.jct.2015.11.017).
Numbers after ± are expanded uncertainties.

Assay: mn = molality of the nth substance listed, in mol/kg
Conditions: 298.2 K, 101.3 kPa, Liquid, Alternating current cell with electrodes

electrical conductivity (m1 = 0.01003): 0.0586 ± 0.001 S/m
electrical conductivity (m1 = 0.01504): 0.0684 ± 0.001 S/m
electrical conductivity (m1 = 0.02006): 0.0816 ± 0.001 S/m
electrical conductivity (m1 = 0.02507): 0.097 ± 0.01 S/m
electrical conductivity (m1 = 0.03009): 0.106 ± 0.01 S/m
SMILES: CCCCCCCCCCCCOS(=O)(=O)[O-].[Na+] [sodium dodecyl sulfate] + O
